Reference: US20250064740A1, “MULTI-VESICULAR LIPID NANOPARTICLE TOLEROGENIC VACCINES FOR INDUCTION OF SYSTEMIC IMMUNE TOLERANCE IN VIVO” (KARMA BIOTECHNOLOGIES, priority 2022, published 2025)

Tests used:
HepG2 cells = assay: SNIPR [pEGFP] transfection of a liver cell line with caveolin inhibitor; assay type: cell-based; conditions: MbC 15 uM, 1 h pretreatment, 48 h
Jurkat cells = assay: SNIPR uptake/transfection of a T cell line with endocytosis inhibitors; assay type: cell-based; conditions: MbC 15 uM, 1 h pretreatment
[1] = system: murine bone marrow-derived macrophages; assay: In vitro immunogenicity: TNFa release by ELISA; assay type: cell-based, mouse; conditions: positive controls
From the text: TNFa release was quantitated by ELISA. Bar charts show mean TNFa release per treatment group (n=3 replicates per treatment group). Error bars indicate SEM. Filled circles indicate mean TNFa release for each individual replicate for each treatment group. Colors of filled circles indicate treatment group.

Substance: Methyl-beta-cyclodextrin [MbC]
- Transfection of a liver cell line by pDNA-loaded SNIPR nanoparticles in presence of inhibitor (HepG2 cells): abrogated
- Transfection of a T cell line by pDNA-loaded SNIPR nanoparticles in presence of inhibitor (Jurkat cells): abrogated

Substance: lipopolysaccharide [LPS]
- TNFa release [1]: strongly elicited
